# Measured values published in US20170252442A1, “PHOTOHEXER COMPOUNDS AND PHARMACEUTICAL COMPOSITION AND USE THEREOF” (RAINBOW PHARMATECH LLC, priority 2014, published 2017).
# Assays:
# [1] = tested on: CT26 cells; test: MTT assay, photodynamic therapy on CT26 cells; assay type: cell-based, murine
# From the text: (§1) The cells in logarithmic growth phase were collected and inoculated on 24-well culture plates. When reaching 70%-80% confluence, cells were divided randomly into the following groups: control (the parallel control group without photosensitizer and irradiation), irradiation (irradiation treatment alone without photosensitizer); (photosensitizer treatment alone without irradiation), photodynamic treatment (treatment by photosensitizer in combination with irradiation). For the photosensitizer alone treatment group and photodynamic treatment group, an appropriate amount of Photohexer-1 (P-1) or Photohexer-2 (P-2) was respectively added away from light to give a final concentration of 0.8, 1.6, 3.2, 6.4 μM. Each group set 3 replicates. Cells were incubated with the active agent, different treatments were carried out according to the grouping. […] After treatment and digestion of each group of cells, it was inoculated into a 96-well plate at 100 μL/well, and four wells were set for each treatment. MTT assay was performed after 24 h from inoculation: 20 μL MTT solution was added to each well under the condition away from light, and the culture was continued for 4 hours. 150 μL DMSO was added to each well after discarding the supernatant. After 15 min of dissolution, the absorbance value (OD value) was measured using a microplate reader and the relative survival rate of cells was calculated according to the following formula: […]
# [2] = tested on: Caco2 cells; test: MTT assay, photodynamic therapy on Caco2 cells; assay type: cell-based, human
# From the text: as §1
# [3] = Storage stability determination; assay type: physicochemical; details: 3 months of storage in dark at 2-4
# Protocol: The storage stability of Photohexer-1 and Photohexer-2 was determined by conventional methods in the art.
# [4] = tested on: MDA-MB-231 cells; test: MTT assay, photodynamic therapy on MDA-MB-231 cells; assay type: cell-based, human
# From the text: as §1
# [5] = tested on: 4T1 transplanted tumors; test: Tumor-inhibition effect of P1 and P2-PDT on 4T1 xenografted mice; assay type: in vivo, Balb/c mice; details: for tumor inhibition rate: day 22 after treatment
# Protocol: Experimental groups: blank control (2 mice), P-1 alone treatment (4 mg/kg, 8 mice), P-2 alone treatment (2 mg/kg, 8 mice), P-1 treatment (2 mg/kg, 4 mg/kg, 8 mice/group) combined with light irradiations, P-2 treatment (1 mg/kg, 2 mg/kg, 4 mg/kg, 8 mice/group) combined with light irradiations, 66 Balb/c mice in total.
# [6] = tested on: MCF-7 cells; test: MTT assay, photodynamic therapy on MCF-7 cells; assay type: cell-based, human
# From the text: as §1
# [7] = tested on: the cell lines; test: MTT assay, summary over the cell lines (photosensitizer alone); assay type: cell-based; details: without light irradiation; selected drug concentration range (0.8-6.4 μM)
# From the text: The cells in logarithmic growth phase were collected and inoculated on 24-well culture plates. When reaching 70%-80% confluence, cells were divided randomly into the following groups: control (the parallel control group without photosensitizer and irradiation), irradiation (irradiation treatment alone without photosensitizer); (photosensitizer treatment alone without irradiation), photodynamic treatment (treatment by photosensitizer in combination with irradiation). For the photosensitizer alone treatment group and photodynamic treatment group, an appropriate amount of Photohexer-1 (P-1) or Photohexer-2 (P-2) was respectively added away from light to give a final concentration of 0.8, 1.6, 3.2, 6.4 μM. Each group set 3 replicates. Cells were incubated with the active agent, different treatments were carried out according to the grouping. Three different light intensities were selected for the photodynamic treatment group, which were 2.6, 5.2 and 12.4 J/cm^2, respectively. After treatment and digestion of each group of cells, it was inoculated into a 96-well plate at 100 μL/well, and four wells were set for each treatment. […] After 15 min of dissolution, the absorbance value (OD value) was measured using a microplate reader and the relative survival rate of cells was calculated according to the following formula: […]
# [8] = tested on: Eca-109 cells; test: MTT assay, photodynamic therapy on Eca-109 cells; assay type: cell-based, human
# From the text: as §1
# [9] = 0.8 μM alone treatment, without irradiation
# [10] = 0.8 μM combined with 2.6 J/cm^2 light irradiation
# [11] = 0.8 μM combined with 5.2 J/cm^2 light irradiation
# [12] = 0.8 μM combined with 10.4 J/cm^2 light irradiation
# [13] = 1.6 μM alone treatment, without irradiation
# [14] = 1.6 μM combined with 2.6 J/cm^2 light irradiation
# [15] = 1.6 μM combined with 5.2 J/cm^2 light irradiation
# [16] = 1.6 μM combined with 10.4 J/cm^2 light irradiation
# [17] = 3.2 μM alone treatment, without irradiation
# [18] = 3.2 μM combined with 2.6 J/cm^2 light irradiation
# [19] = 3.2 μM combined with 5.2 J/cm^2 light irradiation
# [20] = 3.2 μM combined with 10.4 J/cm^2 light irradiation
# [21] = 6.4 μM alone treatment, without irradiation
# [22] = 6.4 μM combined with 2.6 J/cm^2 light irradiation
# [23] = 6.4 μM combined with 5.2 J/cm^2 light irradiation
# [24] = 6.4 μM combined with 10.4 J/cm^2 light irradiation
structure (smiles),measurement,setting,value
"C=Cc1c(C)c2cc3nc(cc4[nH]c(cc5nc(cc1[nH]2)C(C)=C5C(C)OCCCCCC)c(C)c4CCC(=O)[O-])C(CCC(=O)[O-])=C3C.[Na+].[Na+] (stereo not drawn) [Photohexer P-2, 4-(1-hexyloxyethyl)-6,7-bis(propionatesodium)-1,3,5,8-tetramethyl-2-vinylporphyrin]",photoactivity compared between P-1 and P-2,[1],stronger than that of P-1
same,Cell survival rate,[1]; [9],94.08 ± 4.27%
same,Cell survival rate,[1]; [10],83.97 ± 3.96%
same,Cell survival rate,[1]; [11],82.55 ± 4.77%
same,Cell survival rate,[1]; [12],70.66 ± 4.66%
same,Cell survival rate,[1]; [13],92.09 ± 3.56%
same,Cell survival rate,[1]; [14],61.29 ± 2.78%
same,Cell survival rate,[1]; [15],49.85 ± 3.55%
same,Cell survival rate,[1]; [16],38.89 ± 3.86%
same,Cell survival rate,[1]; [17],76.30 ± 2.28%
same,Cell survival rate,[1]; [18],44.29 ± 2.41%
same,Cell survival rate,[1]; [19],39.69 ± 2.27%
same,Cell survival rate,[1]; [20],26.01 ± 2.38%
same,Cell survival rate,[1]; [21],50.49 ± 1.03%
same,Cell survival rate,[1]; [22],34.11 ± 1.02%
same,Cell survival rate,[1]; [23],28.61 ± 1.09%
same,Cell survival rate,[1]; [24],18.82 ± 1.01%
same,Cell survival rate,[2]; [9],99.09 ± 4.27%
same,Cell survival rate,[2]; [10],98.47 ± 3.69%
same,Cell survival rate,[2]; [11],98.57 ± 4.26%
same,Cell survival rate,[2]; [12],73.07 ± 3.86%
same,Cell survival rate,[2]; [13],98.50 ± 3.63%
same,Cell survival rate,[2]; [14],88.31 ± 2.67%
same,Cell survival rate,[2]; [15],77.26 ± 3.66%
same,Cell survival rate,[2]; [16],58.33 ± 2.60%
same,Cell survival rate,[2]; [17],94.12 ± 2.54%
same,Cell survival rate,[2]; [18],75.55 ± 2.01%
same,Cell survival rate,[2]; [19],63.08 ± 2.35%
same,Cell survival rate,[2]; [20],47.94 ± 2.31%
same,Cell survival rate,[2]; [21],88.45 ± 1.44%
same,Cell survival rate,[2]; [22],64.87 ± 1.13%
same,Cell survival rate,[2]; [23],43.88 ± 1.14%
same,Cell survival rate,[2]; [24],37.06 ± 1.54%
same,killing effect of photodynamic therapy,[2]; dependent on concentration and light intensity,good killing effect
same,storage stability (content change by HPLC test),[3],no content change
same,sensitivity compared between P-1 and P-2,[4],more sensitive than P-1
same,Cell survival rate,[4]; [9],100.17 ± 4.03%
same,Cell survival rate,[4]; [10],87.82 ± 4.09%
same,Cell survival rate,[4]; [11],71.8 ± 4.16%
same,Cell survival rate,[4]; [12],52.23 ± 4.16%
same,Cell survival rate,[4]; [13],97.69 ± 3.63%
same,Cell survival rate,[4]; [14],73.80 ± 3.22%
same,Cell survival rate,[4]; [15],49.35 ± 3.46%
same,Cell survival rate,[4]; [16],45.69 ± 3.16%
same,Cell survival rate,[4]; [17],91.44 ± 2.57%
same,Cell survival rate,[4]; [18],59.92 ± 2.94%
same,Cell survival rate,[4]; [19],46.57 ± 2.43%
same,Cell survival rate,[4]; [20],40.31 ± 2.28%
same,Cell survival rate,[4]; [21],81.55 ± 1.21%
same,Cell survival rate,[4]; [22],49.18 ± 1.33%
same,Cell survival rate,[4]; [23],40.03 ± 1.12%
same,Cell survival rate,[4]; [24],31.15 ± 0.96%
same,toxic effects of photosensitizer alone,"[5]; 2 mg/kg alone, without irradiation, 4T1 tumor-bearing mice",did not show significant toxic effects
same,tumor inhibition rate,"[5]; 2 mg/kg combined with light irradiation (50 J/cm^2), 4T1 tumor-bearing mice",23.35%
same,tumor inhibition rate,"[5]; 4 mg/kg combined with light irradiation (50 J/cm^2), 4T1 tumor-bearing mice",44.68%
same,photosensitizer activity on growth of 4T1 transplanted tumors,[5]; combined with 50 J/cm^2 irradiation,obvious dose-dependent activity
same,volume of tumor relative to control group,"[5]; combined with 50 J/cm^2 irradiation, 8th to 22nd days after treatment",about half the size of tumors of control group
same,Cell survival rate,[6]; [9],98.46 ± 4.62%
same,Cell survival rate,[6]; [10],89.08 ± 3.99%
same,Cell survival rate,[6]; [11],76.83 ± 4.26%
same,Cell survival rate,[6]; [12],72.40 ± 4.14%
same,Cell survival rate,[6]; [13],84.93 ± 3.16%
same,Cell survival rate,[6]; [14],65.11 ± 2.73%
same,Cell survival rate,[6]; [15],48.15 ± 3.12%
same,Cell survival rate,[6]; [16],41.81 ± 3.77%
same,Cell survival rate,[6]; [17],82.94 ± 2.28%
same,Cell survival rate,[6]; [18],51.79 ± 2.10%
same,Cell survival rate,[6]; [19],44.80 ± 2.22%
same,Cell survival rate,[6]; [20],34.81 ± 2.43%
same,Cell survival rate,[6]; [21],80.23 ± 1.03%
same,Cell survival rate,[6]; [22],40.31 ± 1.02%
same,Cell survival rate,[6]; [23],35.46 ± 1.02%
same,Cell survival rate,[6]; [24],26.14 ± 1.07%
same,cytotoxicity of alone treatment,[7],did not produce significant cytotoxicity
same,Cell survival rate,[8]; [9],100.38 ± 4.27%
same,Cell survival rate,[8]; [10],96.96 ± 3.87%
same,Cell survival rate,[8]; [11],75.83 ± 4.22%
same,Cell survival rate,[8]; [12],59.89 ± 4.24%
same,Cell survival rate,[8]; [13],95.76 ± 3.16%
same,Cell survival rate,[8]; [14],86.66 ± 2.94%
same,Cell survival rate,[8]; [15],70.66 ± 3.78%
same,Cell survival rate,[8]; [16],51.36 ± 3.67%
same,Cell survival rate,[8]; [17],94.07 ± 2.58%
same,Cell survival rate,[8]; [18],79.33 ± 2.24%
same,Cell survival rate,[8]; [19],56.40 ± 2.33%
same,Cell survival rate,[8]; [20],40.90 ± 2.34%
same,Cell survival rate,[8]; [21],84.49 ± 1.32%
same,Cell survival rate,[8]; [22],83.57 ± 1.12%
same,Cell survival rate,[8]; [23],33.91 ± 1.07%
same,Cell survival rate,[8]; [24],33.91 ± 1.01%
